Measurements taken from patent publication US7384787B2, “Increasing perhydrolase activity in esterases and/or lipases” (Regents of the University of Minnesota, priority 2005, dated 2008).
Substitutions are numbered along the chain they refer to. Names and notes keep the numbering of the source. Like-named read-outs stand apart in the source and are kept apart here.

Key:
[1] = target: T1, Pseudomonas fluorescens aryl esterase (PFE), wild-type, SEQ ID NO:3 (Pseudomonas fluorescens, UniProt P22862)
T1 sequence (P22862 1-272): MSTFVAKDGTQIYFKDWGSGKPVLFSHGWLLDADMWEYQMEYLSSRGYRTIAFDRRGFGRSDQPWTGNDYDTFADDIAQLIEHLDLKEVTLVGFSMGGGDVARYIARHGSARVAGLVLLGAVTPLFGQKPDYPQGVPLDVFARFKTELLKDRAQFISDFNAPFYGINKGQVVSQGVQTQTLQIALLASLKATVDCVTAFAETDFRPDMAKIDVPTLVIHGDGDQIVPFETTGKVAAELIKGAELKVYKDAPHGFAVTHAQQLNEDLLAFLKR
Method: (§1) Activity assays were performed in quadruplicates on 96-well microtiter plates with a reaction volume of 100 μl (90 μl assay solution to 10 μl enzyme in 5 mM BES pH 7.2). The path-length for light through the well was 0.29 cm.
(§2) The monochlorodimedon (MCD) assay (Hager et al., 1966, J. Biol. Chem., 241:1769-1777) was used to detect peracid formation. Each reaction contained MCD (0.18 mM), H2O2 (90 mM), NaBr (90 mM) in acetate buffer (1 M, pH 5.5) at 25° C. The reaction was followed spectrophotometrically at 290 nm in UV-transparent microtiter plates (ε=19.9×10^3 M^−1 cm^−1).
(§3) An estimate of kinetic parameters was also obtained for hydrogen peroxide in wild-type and Leu29Pro. The hydrogen peroxide in wild-type was 5, 10, 20, 50, 100, and 200 mM; for Leu29Pro, the concentrations were 5, 10, 20, 35, 50, 121, 152, and 200 mM.

[2] = target: T2, Pseudomonas fluorescens aryl esterase (PFE) variant Leu29Pro (parent SEQ ID NO:3) (Pseudomonas fluorescens, UniProt P22862, L30P)
T2 sequence (P22862 1-272 L30P): T1 sequence (P22862 1-272) with L30P
Method: as §1, §2, §3

[3] = target: T2, Pseudomonas fluorescens aryl esterase (PFE) variant Leu29Pro (parent SEQ ID NO:3); assay: Kinetics of p-nitrophenyl acetate hydrolysis, Leu29Pro PFE; format: biochemical; design: expressed as in Cheeseman et al. 2004
Method: (§4) The p-nitrophenyl acetate (pNPAc) assay contained pNPAc (0.3 mM) and 8% acetonitrile as co-solvent in BES buffer (5 mM, pH 7.2). The reaction was monitored spectrophotometrically at 404 nm (ε=11.4·10 ^3 M^−1 cm^−1). A pH-indicator assay was used to assay substrates without inherent light absorbing properties (Janes et al., 1998, Chem. Eur. J. 4:2324-2331). The reactions were carried out in BES buffer (5 mM, pH 7.2) containing p-nitrophenol. As hydrolysis progresses, protons add to the p-nitrophenolate and the course of reaction can be monitored as a decrease in absorbance at 404 nm (ε=16.5·10^3 M^−1 cm^−1). This provides a good estimate of reaction rates, but is limited to substrates containing only one possible acid-functionality, as several would interfere with the pH indicator.
(§5) Kinetic parameters for hydrolysis of pNPAc in wild-type and Leu29Pro were carried out with pNPAc at 0.1, 0.2, 0.5, 1.0, 2.0, 4.0, and 10 mM under otherwise identical conditions as for the pNPAc-assay. Solubility problems limited higher substrate concentrations than 10 mM. Data points were fitted by non-linear regression using OriginPro 7.5 SR1 v7.5776 (OriginLab Corporation, Northampton, Mass.) with a hyperbola function of basic equation y=P1*x/(P2+x), where x is the substrate concentration (mM), P1 corresponds to Vmax (μmol min^−1 mg^−1 or U/mg), and P2 corresponds to KM (mM). R^2-values for were 0.992 and 0.997 for wild-type and Leu29Pro, respectively.

[4] = substrate: CC(=O)Oc1ccc([N+](=O)[O-])cc1; assay: Kinetics of p-nitrophenyl acetate hydrolysis, wild-type PFE; format: biochemical, Pseudomonas fluorescens; conditions: other: hydrolysis of pNPAc 0.1-10 mM, 5 mM BES pH 7.2, 8% acetonitrile
Method: as §4, §5

[5] = substrate: CC(=O)Oc1ccc([N+](=O)[O-])cc1; assay: Kinetics of p-nitrophenyl acetate hydrolysis, Leu29Pro PFE; format: biochemical, Pseudomonas fluorescens; conditions: other: hydrolysis of pNPAc 0.1-10 mM, 5 mM BES pH 7.2, 8% acetonitrile
Method: as §4, §5

[6] = perhydrolysis, H2O2 5-200 mM, 1 M acetate pH 5.5, 25° C.
[7] = perhydrolysis, H2O2 5-200 mM, 1 M acetate pH 5.5, 25° C., Leu29Pro

OO [H2O2, hydrogen peroxide]
Vmax/KM ([1]; perhydrolysis of acetic acid, H2O2): 13 U mg^−1 M^−1
Km [1, 6]: 17 mM
Vmax [1, 6]: 0.22 ± 0.02 U mg^−1
Vmax ([1]; perhydrolysis, H2O2 5-200 mM, 1 M acetate pH 5.5, 25° C., listed as hydrogen peroxide): 0.22 U mg^−1
fold increase in Vmax for perhydrolysis ([2]; Leu29Pro vs wild-type): 50 fold
fold increase in catalytic efficiency (Vmax/KM) for perhydrolysis of acetic acid ([2]; Leu29Pro vs wild-type): 14 fold
increase in Km for hydrogen peroxide ([2]; Leu29Pro vs wild-type): three-fold
Vmax/KM ([2]; perhydrolysis of acetic acid, H2O2, Leu29Pro): 180 U mg^−1 M^−1
Km [2, 7]: 58 mM
Vmax [2, 7]: 11 ± 1 U mg^−1
Vmax ([2]; perhydrolysis, H2O2 5-200 mM, 1 M acetate pH 5.5, 25° C., Leu29Pro, listed as hydrogen peroxide): 11 U mg^−1

CC(=O)Oc1ccc([N+](=O)[O-])cc1 [pNPAc, p-nitrophenyl acetate]
fold decrease in Vmax for hydrolysis of pNPAc ([3]; Leu29Pro vs wild-type): 50 fold
increase in KM for pNPAc ([3]; Leu29Pro vs wild-type): three-fold
fold change in catalytic efficiency (Vmax/KM) for hydrolysis of pNPAc ([3]; Leu29Pro vs wild-type (decrease)): 165 fold

B1: Pseudomonas fluorescens aryl esterase (PFE), wild-type, SEQ ID NO:3 (Pseudomonas fluorescens) (protein)
chain: T1 sequence (P22862 1-272)
notes: expressed as in Cheeseman et al. 2004
Km [4]: 2.8 ± 0.4 mM
Vmax [4]: 143 µmol/min/mg
Vmax/Km [4]: 51000 µL/min/mg

B2: Pseudomonas fluorescens aryl esterase (PFE) variant Leu29Pro (parent SEQ ID NO:3) (Pseudomonas fluorescens; L30P) (protein)
chain: T1 sequence (P22862 1-272) with L30P
notes: as for B1
Km [5]: 8.9 ± 1.1 mM
Vmax [5]: 2.8 µmol/min/mg
Vmax/Km [5]: 310 µL/min/mg
